What was measured:
TYK2 Pseudokinase (JH2) [1] = target: T1, TYK2 Pseudokinase (JH2) (Homo sapiens, UniProt P29597); test: HEK-Blue IFNα/β reporter assay (SEAP) for profiling TYK2 pseudokinase (JH2) inhibition; type: cell-based; details: HEK-Blue IFNα/β cells, 1 ng/mL human recombinant IFNα, read-out: IFNα (TYK2 inhibitory activity, IC50)
Procedure: (§1) Example B-1: HEK-Blue™ IL-23 and IFNα/β Reporter Assays for Profiling TYK2 Pseudokinase (JH2) Inhibition
(§2) HEK-Blue™ IL-23 and IFNα/β cells with a stably-integrated cytokine receptor and STAT3 or STAT1 express STAT-inducible secreted embryonic alkaline phosphatase (SEAP) reporter gene upon cytokine stimulation. These cells are plated in DMEM (Gibco) containing 10% heat-inactivated FBS (Gibco) and 100 U/mL PenStrep (Gibco) at 37° C. under 5% CO2 conditions for 20-22 hours. The cells are then pretreated with serially diluted test compounds for 60 min prior to stimulation with either 10 ng/mL human recombinant IL-23 (Miltenyl Biotech) or 1 ng/mL human recombinant IFNα (InvivoGen) for 22-24 hours for IL-23 or 16-18 h for IFNα. SEAP induction is measured using the QUANTI Blue™ Solution (InvivoGen) according to the manufacturer's instructions.

TYK2-JH1 = target: T2, TYK2-JH1 (Homo sapiens, UniProt P29597); test: HTRF-based selectivity assay, TYK2 catalytic domain; type: biochemical; details: kinase domain (JH1), ATP 20 μM
T2 construct: recombinant purified His or GST-tagged catalytic domain for each enzyme; made in house
T2 sequence (P29597 897-1176 limits assumed): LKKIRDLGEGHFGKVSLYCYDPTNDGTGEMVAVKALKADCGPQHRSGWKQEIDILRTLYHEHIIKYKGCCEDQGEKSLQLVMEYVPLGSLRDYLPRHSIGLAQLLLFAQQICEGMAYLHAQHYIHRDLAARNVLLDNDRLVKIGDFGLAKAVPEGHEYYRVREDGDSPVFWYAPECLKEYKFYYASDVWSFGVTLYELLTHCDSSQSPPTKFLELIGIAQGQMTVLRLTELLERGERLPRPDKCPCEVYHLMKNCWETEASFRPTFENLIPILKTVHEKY
Procedure: (§3) Example B-2: HTRF-Based Selectivity Assay
(§4) The ability of compounds to inhibit the activity of JAK1, JAK2, JAK3 and TYK2 is measured using a recombinant purified His or GST-tagged catalytic domain for each enzyme (JAK1, JAK2 and TYK2 are generated in-house; JAK3 was purchased from Carna biosciences, Cat #08-046) in an HTRF format biochemical assay. The reactions employs a commercial peptide substrate from Cisbio (Cat #62TK0PEC). The basic assay protocol is as follows: first, 2.5 μL of diluted compounds (4×) in DMSO are dispensed into a 384-well Optiplate. Next, 2.5 μL of enzyme (final concentrations for enzymes are: TYK2—700 ng/mL, JAK1—80.6 ng/mL, JAK2—2.1 ng/mL and JAK3—171.8 ng/mL) is added and incubated at RT for 5-20 min. Finally, 5 μl of mixture of 2×ATP [Final concentration 20 μM for TYK2, 21.43 μM for JAK1, 14.7 μM for JAK2 and 2.12 μM for JAK3]+2× Substrate [Final concentration 217 nM for TYK2, 454.7 nM for JAK1, 200 nM for JAK2 and 257.4 nM for JAK3] is added to 384 well Optiplate. Composition of Kinase assay buffer used in the assay is as follows: HEPES 50 mM, EGTA 1 mM, MgCl2 10 mM, DTT 2 mM, Tween-20 0.01% and water. Then the plates are shaken and then incubated at 26.5° C. for 60 min.

JAK1-JH1 = target: T3, JAK1-JH1 (Homo sapiens, UniProt P23458); test: HTRF-based selectivity assay, JAK1 catalytic domain; type: biochemical; details: kinase domain (JH1), ATP 21.43 μM
T3 construct: recombinant purified His or GST-tagged catalytic domain for each enzyme; made in house
T3 sequence (P23458 875-1153 limits assumed): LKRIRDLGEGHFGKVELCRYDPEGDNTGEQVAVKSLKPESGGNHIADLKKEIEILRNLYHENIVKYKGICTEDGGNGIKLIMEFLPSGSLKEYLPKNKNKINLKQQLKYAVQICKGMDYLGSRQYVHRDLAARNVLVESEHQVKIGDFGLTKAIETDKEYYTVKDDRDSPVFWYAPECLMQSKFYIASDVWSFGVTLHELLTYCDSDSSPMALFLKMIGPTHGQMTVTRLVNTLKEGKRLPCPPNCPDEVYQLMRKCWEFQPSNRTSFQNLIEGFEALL
Procedure: as §3, §4

JAK2-JH1 = target: T4, JAK2-JH1 (Homo sapiens, UniProt O60674); test: HTRF-based selectivity assay, JAK2 catalytic domain; type: biochemical; details: kinase domain (JH1), ATP 14.7 μM
T4 construct: recombinant purified His or GST-tagged catalytic domain for each enzyme; made in house
T4 sequence (O60674 849-1124 limits assumed): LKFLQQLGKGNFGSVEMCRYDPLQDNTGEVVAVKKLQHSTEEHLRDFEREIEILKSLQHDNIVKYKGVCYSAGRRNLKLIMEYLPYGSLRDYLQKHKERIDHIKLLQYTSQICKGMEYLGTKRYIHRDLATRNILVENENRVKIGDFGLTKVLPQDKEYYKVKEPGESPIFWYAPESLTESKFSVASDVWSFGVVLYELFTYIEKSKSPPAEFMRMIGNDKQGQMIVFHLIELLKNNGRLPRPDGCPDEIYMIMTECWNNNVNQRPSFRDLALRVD
Procedure: as §3, §4

JAK3-JH1 = target: T5, JAK3-JH1 (Homo sapiens, UniProt P52333); test: HTRF-based selectivity assay, JAK3 catalytic domain; type: biochemical; details: kinase domain (JH1), ATP 2.12 μM
T5 construct: recombinant purified His or GST-tagged catalytic domain for each enzyme; purchased Carna biosciences 08-046
T5 sequence (P52333 822-1111 limits assumed): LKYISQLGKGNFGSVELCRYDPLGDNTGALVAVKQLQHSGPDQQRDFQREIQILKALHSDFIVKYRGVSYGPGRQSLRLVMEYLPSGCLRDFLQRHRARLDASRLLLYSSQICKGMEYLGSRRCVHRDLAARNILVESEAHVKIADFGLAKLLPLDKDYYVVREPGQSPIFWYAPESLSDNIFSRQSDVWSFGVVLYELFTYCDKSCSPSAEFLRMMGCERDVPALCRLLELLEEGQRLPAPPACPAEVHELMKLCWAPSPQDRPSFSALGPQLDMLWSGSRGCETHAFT
Procedure: as §3, §4

[2] = tested on: HEK-Blue™ IL-2 reporter cells; test: HEK-Blue IL-2 reporter assay (SEAP) for determining selectivity; type: cell-based; details: HEK-Blue IL-2 cells, 4 ng/mL human recombinant IL-2, SEAP reporter
Procedure: (§5) Example B-3: HEK-Blue™ IL-2 and IFNγ Reporter Assays for Determining Selectivity
(§6) HEK-Blue™ IL-2 and IFNγ reporter cells with a stably-integrated cytokine receptor and STAT5 or STAT1 express STAT-inducible secreted embryonic alkaline phosphatase (SEAP) reporter gene upon cytokine stimulation. These cells were plated in DMEM (Gibco) containing 10% heat-inactivated FBS (Gibco) and 100 U/mL PenStrep (Gibco) at 37° C. under 5% CO2 conditions for 20-22 hours. The cells were then pre-treated with serially diluted test compounds for 60 min prior to stimulation with either 4 ng/mL human recombinant IL-2 (Miltenyl Biotech) or 50 ng/mL human recombinant IFNγ (InvivoGen) for 24 hours. SEAP induction was measured using the QUANTI-Blue™ Solution (InvivoGen) according to the manufacturer's instructions.

[3] = tested on: HEK-Blue™ IFNγ reporter cells; test: HEK-Blue IFNγ reporter assay (SEAP) for determining selectivity; type: cell-based; details: 50 ng/mL human recombinant IFNγ, read-out: IFN-γ (SEAP selectivity, IC50)
Procedure: as §5, §6

TYK2 Pseudokinase (JH2) [4] = target: T1, TYK2 Pseudokinase (JH2); test: HEK-Blue IL-23 reporter assay (SEAP) for profiling TYK2 pseudokinase (JH2) inhibition; type: cell-based; parameters: HEK-Blue™ IL-23 and IFNα/β cells with a stably-integrated cytokine receptor and STAT3 or STAT1; endogenous in cells; host or cells: HEK-Blue IL-23 and HEK-Blue IFNα/β cells; details: HEK-Blue IL-23 cells, 10 ng/mL human recombinant IL-23, SEAP reporter; read-out: IL23 (TYK2 inhibitory activity, IC50)
Procedure: as §1, §2

T1 sequence (P29597 whole entry): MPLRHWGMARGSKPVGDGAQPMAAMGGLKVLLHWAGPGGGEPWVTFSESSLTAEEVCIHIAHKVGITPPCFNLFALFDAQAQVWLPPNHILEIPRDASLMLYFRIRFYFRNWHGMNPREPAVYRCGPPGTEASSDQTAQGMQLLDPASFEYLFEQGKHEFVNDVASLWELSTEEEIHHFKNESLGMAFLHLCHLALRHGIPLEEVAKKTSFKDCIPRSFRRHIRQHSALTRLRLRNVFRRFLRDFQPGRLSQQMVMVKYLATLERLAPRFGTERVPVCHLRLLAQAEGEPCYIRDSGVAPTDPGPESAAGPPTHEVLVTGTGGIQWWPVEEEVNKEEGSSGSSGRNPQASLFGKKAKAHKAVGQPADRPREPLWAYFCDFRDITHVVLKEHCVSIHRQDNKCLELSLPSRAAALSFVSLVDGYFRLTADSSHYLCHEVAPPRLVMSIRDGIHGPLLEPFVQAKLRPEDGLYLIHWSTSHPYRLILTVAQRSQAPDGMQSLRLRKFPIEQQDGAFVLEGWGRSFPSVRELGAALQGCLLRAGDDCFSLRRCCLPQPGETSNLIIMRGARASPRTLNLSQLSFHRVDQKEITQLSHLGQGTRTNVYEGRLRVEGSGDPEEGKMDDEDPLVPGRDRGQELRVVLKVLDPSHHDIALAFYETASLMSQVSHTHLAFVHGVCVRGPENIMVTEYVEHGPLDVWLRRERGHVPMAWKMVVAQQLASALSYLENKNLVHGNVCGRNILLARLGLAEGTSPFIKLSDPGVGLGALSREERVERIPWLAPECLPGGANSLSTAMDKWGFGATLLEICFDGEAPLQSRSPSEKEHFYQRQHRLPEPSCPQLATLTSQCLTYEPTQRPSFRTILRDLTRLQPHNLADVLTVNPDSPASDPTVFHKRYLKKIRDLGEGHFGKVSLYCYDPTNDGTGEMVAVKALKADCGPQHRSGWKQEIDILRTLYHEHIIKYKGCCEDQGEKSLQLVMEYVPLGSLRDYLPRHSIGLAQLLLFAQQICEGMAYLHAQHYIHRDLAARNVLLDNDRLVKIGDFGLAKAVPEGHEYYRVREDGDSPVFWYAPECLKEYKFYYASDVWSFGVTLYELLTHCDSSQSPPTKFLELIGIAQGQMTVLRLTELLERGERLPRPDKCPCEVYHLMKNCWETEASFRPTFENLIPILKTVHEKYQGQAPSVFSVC

Structure (SMILES) | IC50 (TYK2 Pseudokinase (JH2) [1]) | IC50 (TYK2-JH1) | IC50 (JAK1-JH1) | IC50 (JAK2-JH1) | IC50 (JAK3-JH1) | IC50 [2] | IC50 [3] | IC50 (TYK2 Pseudokinase (JH2) [4])
[2H]C([2H])([2H])NC(=O)c1cnc(Nc2ccc(F)cn2)cc1Nc1cccc2c1N(C)Cc1nnnn1-2 [Compound 10, 6-((5-fluoropyridin-2-yl)amino)-N-(methyl-d3)-4-((5-methyl-4,5-dihydrotetrazolo[1,5-a]quinoxalin-6-yl)amino)nicotinamide] | 0.03 to 0.3 µM | > 1 µM | > 1 µM | > 1 µM | > 1 µM | > 1 µM | > 1 µM | < 0.03 µM
[2H]C([2H])([2H])NC(=O)c1cnc(NC(=O)C2CC2)cc1Nc1cccc2c1N(C)Cc1nn(C)c(=O)n1-2 [Compound 8, 6-(cyclopropanecarboxamido)-4-((2,5-dimethyl-1-oxo-1,2,4,5-tetrahydro-[1,2,4]triazolo[4,3-a]quinoxalin-6-yl)amino)-N-(methyl-d3)nicotinamide] | < 0.03 µM | > 1 µM | > 1 µM | > 1 µM | > 1 µM | > 1 µM | 0.3 to 1 µM | < 0.03 µM
[2H]C([2H])([2H])NC(=O)c1cnc(NC(=O)C2CC2)cc1Nc1cccc2c1N(C)Cc1nnnn1-2 [Compound 11, 6-(cyclopropanecarboxamido)-N-(methyl-d3)-4-((5-methyl-4,5-dihydrotetrazolo[1,5-a]quinoxalin-6-yl)amino)nicotinamide] | 0.03 to 0.3 µM | > 1 µM | > 1 µM | > 1 µM | > 1 µM | > 1 µM | > 1 µM | < 0.03 µM
[2H]C([2H])([2H])NC(=O)c1nnc(NC(=O)C2CC2)cc1Nc1cccc2c1N(C)Cc1nn(C)c(=O)n1-2 [Compound 17, 6-(cyclopropanecarboxamido)-4-((2,5-dimethyl-1-oxo-1,2,4,5-tetrahydro-[1,2,4]triazolo[4,3-a]quinoxalin-6-yl)amino)-N-(methyl-d3)pyridazine-3-carboxamide] | < 0.03 µM | > 1 µM | > 1 µM | > 1 µM | > 1 µM | > 1 µM | 0.03 to 0.3 µM | < 0.03 µM
[2H]C([2H])([2H])NC(=O)c1nnc(NC(=O)C2CC2)cc1Nc1cc(F)cc2c1N(C)Cc1nn(C)c(=O)n1-2 [Compound 18, 6-(cyclopropanecarboxamido)-4-((8-fluoro-2,5-dimethyl-1-oxo-1,2,4,5-tetrahydro-[1,2,4]triazolo[4,3-a]quinoxalin-6-yl)amino)-N-(methyl-d3)pyridazine-3-carboxamide] | 0.03 to 0.3 µM | > 1 µM | > 1 µM | > 1 µM | > 1 µM | > 1 µM | – | < 0.03 µM
CNC(=O)c1nnc(Nc2ccc(F)cn2)cc1Nc1cccc2c1OCc1conc1-2 [Compound 2, 4-((4H-chromeno[4,3-c]isoxazol-6-yl)amino)-6-((5-fluoropyridin-2-yl)amino)-N-methylpyridazine-3-carboxamide] | > 1 µM | > 1 µM | > 1 µM | > 1 µM | > 1 µM | > 1 µM | 0.3 to 1 µM | < 0.03 µM
[2H]C([2H])([2H])NC(=O)c1cnc(NC(=O)C2CC2)cc1Nc1cc(F)cc2c1N(C)Cc1nn(C)c(=O)n1-2 [Compound 16, 6-(cyclopropanecarboxamido)-4-((8-fluoro-2,5-dimethyl-1-oxo-1,2,4,5-tetrahydro-[1,2,4]triazolo[4,3-a]quinoxalin-6-yl)amino)-N-(methyl-d3)nicotinamide] | < 0.03 µM | > 1 µM | > 1 µM | > 1 µM | > 1 µM | > 1 µM | > 1 µM | < 0.03 µM
[2H]C([2H])([2H])NC(=O)c1nnc(NC(=O)C2CC2)cc1Nc1nccc2c1N(C)Cc1nn(C)c(=O)n1-2 [Compound 20, 6-(cyclopropanecarboxamido)-4-((2,5-dimethyl-1-oxo-1,2,4,5-tetrahydropyrido[3,4-e][1,2,4]triazolo[4,3-a]pyrazin-6-yl)amino)-N-(methyl-d3)pyridazine-3-carboxamide] | < 0.03 µM | > 1 µM | > 1 µM | > 1 µM | > 1 µM | > 1 µM | – | < 0.03 µM
[2H]C([2H])([2H])NC(=O)c1cnc(Nc2cc(C)nc(C)n2)cc1Nc1cccc2c1N(C)Cc1nn(C)c(=O)n1-2 [Compound 12, 4-((2,5-dimethyl-1-oxo-1,2,4,5-tetrahydro-[1,2,4]triazolo[4,3-a]quinoxalin-6-yl)amino)-6-((2,6-dimethylpyrimidin-4-yl)amino)-N-(methyl-d3)nicotinamide] | < 0.03 µM | > 1 µM | > 1 µM | > 1 µM | > 1 µM | > 1 µM | > 1 µM | < 0.03 µM
CNC(=O)c1cnc(Nc2ccc(F)cn2)cc1Nc1cccc2c1OCCn1nnnc1-2 [Compound 15, 4-((5,6-dihydrobenzo[f]tetrazolo[1,5-d][1,4]oxazepin-8-yl)amino)-6-((5-fluoropyridin-2-yl)amino)-N-methylnicotinamide] | 0.3 to 1 µM | > 1 µM | > 1 µM | > 1 µM | > 1 µM | – | – | 0.03 to 0.3 µM
[2H]C([2H])([2H])NC(=O)c1cnc(Nc2ccc(F)cn2)cc1Nc1cccc2c1N(C)Cc1nn(C)c(=O)n1-2 [Compound 9, 4-((2,5-dimethyl-1-oxo-1,2,4,5-tetrahydro-[1,2,4]triazolo[4,3-a]quinoxalin-6-yl)amino)-6-((5-fluoropyridin-2-yl)amino)-N-(methyl-d3)nicotinamide] | < 0.03 µM | > 1 µM | > 1 µM | > 1 µM | > 1 µM | > 1 µM | > 1 µM | < 0.03 µM

Reference: patent US20240189309A1, “TYK2 INHIBITORS AND USES THEREOF” (Sudo Biosciences Limited, priority 2021, published 2024)
